Measurements published in patent US10406207B2, “Peptide conjugates of GLP-1 receptor agonists and gastrin and their use” (priority 2010, dated 2019).
Like-named read-outs stand apart in the source and are kept apart here. One block for each compound: values may come before it. Bridge positions count the residues as written; N and C are the ends. Square brackets hold non-standard residues; d marks the D form. Peptide text beside a SMILES is read from it. AEEA = NCCOCCOCC(=O)O

What was measured:
human GLP-1 R = target: T1, human GLP-1 R (Homo sapiens, UniProt P43220); assay: Human GLP-1 receptor efficacy assay (cAMP induction, FlashPlate); assay type: cell-based; conditions: read-out: hGLP-1 R EC50
T1 construct: expressed in transfected cells
Description: On the day of analysis, growth medium was removed and the cells were washed once with 200 μl Tyrode buffer [Tyrode's Salts (9.6 g/l), 10 mM HEPES, pH 7.4]. […] The reaction was stopped by addition of 25 μl 0.5 M HCl and incubated on ice for 60 min.

in vivo = assay: in vivo; design: species or system C57Bl mice; conditions: mouse, sc, 100 nmol/kg; for half-life: C57Bl
Description: Two C57Bl mice were given a single subcutaneous dose of 100 nmol/kg of each peptide. […] At each time point, samples from two mice were taken. Plasma samples were analyzed after solid phase extraction (SPE) by liquid chromatography mass spectrometry (LC-MS/MS).

human CCK-B R = target: T2, human CCK-B R (Homo sapiens, UniProt P32239); assay: Human CCK-B receptor efficacy assay (AlphaScreen SureFire p-ERK); assay type: cell-based; conditions: Table 1; HEK293 cells expressing human CCK-B R, p-ERK; read-out: hCCK-B R EC50
T2 construct: expressed in transfected cells
T2 sequence (P32239 1-447): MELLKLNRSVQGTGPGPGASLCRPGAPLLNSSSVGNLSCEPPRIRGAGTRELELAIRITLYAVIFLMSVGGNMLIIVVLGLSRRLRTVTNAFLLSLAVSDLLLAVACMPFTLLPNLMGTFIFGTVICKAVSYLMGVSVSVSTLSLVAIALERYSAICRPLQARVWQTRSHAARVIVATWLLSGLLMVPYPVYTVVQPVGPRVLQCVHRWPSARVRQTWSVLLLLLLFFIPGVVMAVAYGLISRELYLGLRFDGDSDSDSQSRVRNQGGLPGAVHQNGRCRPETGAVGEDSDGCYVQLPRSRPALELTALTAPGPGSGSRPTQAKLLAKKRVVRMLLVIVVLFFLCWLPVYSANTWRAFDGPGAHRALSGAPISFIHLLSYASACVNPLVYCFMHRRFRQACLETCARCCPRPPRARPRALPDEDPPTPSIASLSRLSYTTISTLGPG

mouse CCK-B R = target: T3, mouse CCK-B R (Mus musculus, UniProt P56481); assay: Mouse CCK-B receptor efficacy assay (AlphaScreen SureFire p-ERK); assay type: cell-based; conditions: Table 1; HEK293 cells expressing mouse CCK-B R, p-ERK; read-out: mCCK-B R EC50
T3 construct: expressed in transfected cells
T3 sequence (P56481 1-453): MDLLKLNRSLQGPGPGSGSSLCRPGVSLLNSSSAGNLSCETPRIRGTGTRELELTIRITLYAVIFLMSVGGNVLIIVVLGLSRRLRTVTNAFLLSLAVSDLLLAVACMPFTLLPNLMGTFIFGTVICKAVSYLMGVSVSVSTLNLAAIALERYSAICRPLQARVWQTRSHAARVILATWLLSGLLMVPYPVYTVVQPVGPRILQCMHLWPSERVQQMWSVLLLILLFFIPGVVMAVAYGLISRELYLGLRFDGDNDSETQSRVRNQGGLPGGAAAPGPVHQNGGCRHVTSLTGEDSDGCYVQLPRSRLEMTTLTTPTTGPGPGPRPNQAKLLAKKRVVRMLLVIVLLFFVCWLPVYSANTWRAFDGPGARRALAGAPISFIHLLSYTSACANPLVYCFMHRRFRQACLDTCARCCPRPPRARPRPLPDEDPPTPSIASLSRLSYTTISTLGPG
From the text: CCK-B Receptor (CCK-B R) Efficacy Assay:
To test binding and activation of CCK-B R we produced stable cell lines expressing one of the human or mouse CCK receptors in a manner similar to that for production of the hGLP-1 R cell lines were generated (vide supra). In brief, we used HEK293 cells for transfection of the cDNA for human or mouse CCK-A R or CCK-B R [hCCK-A R (gene identity: L19315), hCCK-B R (NM_176875), mCCK-A R (NM_009827) and mCCK-B R (NM_007627)] all cloned into the transfection plasmid pIRESneo2dNGFR. The cells were grown according to standard protocol in growth medium and transfected with the plasmids using Lipofectamin (Invitrogen). The cells stably expressing CCK receptors were selected using G418 in the growth medium (only cells that have taken up and incorporated the cDNA expression plasmid survive) and propagated. Stocks of cells were frozen for later use.
In vitro effects of peptide conjugates of the invention were estimated by measuring p-ERK (using the AlphaScreen™ SureFire p-ERK assay) in HEK293 cells stably expressing the human and mouse CCK-B R (high-affinity Gastrin receptor), respectively. The Gastrin receptor efficacy assays (AlphaScreen™ SureFire p-ERK assay) were performed as follows:
The CCK-B R expressing cells in question were seeded at 20,000 cells/well in 100 μl growth medium [DMEM, 10% FCS, Penicillin (100 IU/ml), Streptomycin (100 μg/ml)] in a 96-well plate coated with poly-D-lysine. The cells were incubated in an incubator (37° C., 5% […]) for two days.
The growth medium was changed to 80 μl of serum-free medium [DMEM, Penicillin (100 IU/ml), Streptomycin (100 μg/ml)] per well, and incubation of the cells was continued for 19 hours in the incubator (37° C., 5% CO2).
• 1. After 19 hours, 20 μl of serum-free medium containing one of 5 different concentrations of peptide conjugate was added (performed in triplicate for each concentration), and the cells were incubated for 5 min. at room temperature. • 2. The stimulation medium was discarded by quickly turning the plate upside down, and 60 μl 1× lysis buffer (from the SureFire assay kit) was added per well. • 3. The plate was shaken on a plate-shaker for 5 min and then placed on ice. • 4. SureFire P-ERK assay: 4 μl of each supernatant was transferred to a 384 well proxiplate (Perkin Elmer). • 5. 4 μl of each of the two control lysates (unstimulated and stimulated) were added to the proxiplate in duplicate. • 6. […] 7 μl of the latter reaction buffer+activation buffer+beads per well were added in the proxiplate, the mix being resuspended carefully before addition to the wells. • 7. The plate was incubated for 2 hours in a dark box in a 22° C. incubator. • 8. The plate was analyzed on an Envision™ light-emission plate reader (Perkin-Elmer) using the appropriate reading program (Perkin-Elmer).

[1] = Table 1, HEK293 cells expressing human GLP-1 R, cAMP

T1 sequence (P43220 24-463): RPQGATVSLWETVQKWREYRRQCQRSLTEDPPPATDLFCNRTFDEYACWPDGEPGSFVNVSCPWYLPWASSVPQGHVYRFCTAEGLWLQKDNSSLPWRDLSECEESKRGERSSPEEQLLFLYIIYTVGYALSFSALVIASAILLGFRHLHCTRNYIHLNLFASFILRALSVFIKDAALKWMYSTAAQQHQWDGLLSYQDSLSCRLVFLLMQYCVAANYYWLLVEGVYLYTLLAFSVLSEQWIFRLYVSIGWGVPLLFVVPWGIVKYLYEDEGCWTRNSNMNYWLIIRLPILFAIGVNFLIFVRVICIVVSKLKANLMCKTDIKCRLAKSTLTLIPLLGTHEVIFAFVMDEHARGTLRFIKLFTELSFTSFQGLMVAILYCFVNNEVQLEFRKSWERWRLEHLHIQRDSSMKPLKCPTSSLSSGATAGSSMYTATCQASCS

Compound: CC[C@H](C)[C@H](NC(=O)[C@H](Cc1ccccc1)NC(=O)[C@H](CC(C)C)NC(=O)[C@H](CCCNC(=N)N)NC(=O)[C@@H](NC(=O)[C@H](C)NC(=O)[C@H](CCC(=O)O)NC(=O)[C@H](CCC(=O)O)NC(=O)[C@H](CCC(=O)O)NC(=O)[C@H](CC(C)C)NC(=O)[C@H](Cc1ccc(O)cc1)NC(=O)[C@H](CCCCN)NC(=O)[C@H](CO)NC(=O)[C@H](CC(C)C)NC(=O)[C@H](CC(=O)O)NC(=O)[C@H](CO)NC(=O)[C@@H](NC(=O)[C@H](Cc1ccccc1)NC(=O)[C@@H](NC(=O)CNC(=O)[C@H](CCC(=O)O)NC(=O)CNC(=O)[C@@H](N)Cc1c[nH]cn1)[C@@H](C)O)[C@@H](C)O)C(C)C)C(=O)N[C@@H](CCC(=O)O)C(=O)N[C@@H](Cc1ccccc1)C(=O)N[C@@H](CC(C)C)C(=O)N[C@@H](CCCCN)C(=O)NCCOCCOCC(=O)NCCOCCOCC(=O)N[C@@H](Cc1ccc(O)cc1)C(=O)NCC(=O)N[C@@H](Cc1c[nH]c2ccccc12)C(=O)N[C@@H](CC(C)C)C(=O)N[C@@H](CC(=O)O)C(=O)N[C@@H](Cc1ccccc1)C(N)=O [Compound 77, [Tyr13,Leu14,Phe25]Exendin-4(1-27)-Peg3-Peg3-[Leu4]Gastrin6] (H-HGEGTFTSDLSKYLEEEAVRLFIEFLK[AEEA][AEEA]YGWLDF-NH2)
EC50 (human GLP-1 R; Table 2): 0.044 nM | half-life (in vivo): 3.1 h | Half-life and exposure (in words) (in vivo): superior to the rest

Compound: H-HAEGTFTSDVSSYLEGQAAKEFIAWLVKGRAAAQGPWLEEEEEAYGWLDF-NH2 [Compound 39, GLP-1(7-36)-AAA-[Gln1,Leu15]Gastrin17]
EC50 (human GLP-1 R; [1]): 0.114 nM | EC50 (human GLP-1 R; Table 3): 0.034 nM | EC50 (human CCK-B R): 18.8 nM | EC50 (mouse CCK-B R): 54.1 nM

Compound: H-HAEGTFTSDVSSYLEGQAAKEFIAWLVKGRSKKQGPWLEEEEEAYGWLDF-NH2 [Compound 40, GLP-1(7-36)-SKK-[Gln1,Leu15]Gastrin17]
EC50 (human GLP-1 R; [1]): 0.116 nM | EC50 (human GLP-1 R; Table 3): 0.031 nM | EC50 (human CCK-B R): 15.6 nM | EC50 (mouse CCK-B R): 58.6 nM

Compound: H-HAEGTFTSDVSSYLEGQAAKEFIAWLVKGRQGPWLEEEEEAYGWLDF-NH2 [Compound 37, GLP-1(7-36)-[Gln1,Leu15]Gastrin17]
EC50 (human GLP-1 R; [1]): 0.145 nM | EC50 (human GLP-1 R; Table 3): 0.03 nM | EC50 (human CCK-B R): 25.9 nM | EC50 (mouse CCK-B R): 73.1 nM

Continued, values first:

EC50 (human GLP-1 R; [1]): 0.0842 nM | EC50 (human GLP-1 R; Table 3): 0.03 nM | EC50 (human CCK-B R): 77.3 nM | EC50 (mouse CCK-B R): 114 nM
Compound: H-HAEGTFTSDVSSYLEGQAAKEFIAWLVKGRKQGPWLEEEEEAYGWLDF-NH2 [Compound 38, GLP-1(7-36)-K-[Gln1,Leu15]Gastrin17]

EC50 (human CCK-B R): 8.2 nM | EC50 (mouse CCK-B R): 58.3 nM
Compound: CC[C@H](C)[C@H](NC(=O)[C@H](Cc1ccccc1)NC(=O)[C@H](CCC(=O)O)NC(=O)[C@H](CCCCN)NC(=O)[C@H](C)NC(=O)[C@H](C)NC(=O)[C@H](CCC(N)=O)NC(=O)CNC(=O)[C@H](CCC(=O)O)NC(=O)[C@H](CC(C)C)NC(=O)[C@H](Cc1ccc(O)cc1)NC(=O)[C@H](CO)NC(=O)[C@H](CO)NC(=O)[C@@H](NC(=O)[C@H](CC(=O)O)NC(=O)[C@H](CO)NC(=O)[C@@H](NC(=O)[C@H](Cc1ccccc1)NC(=O)[C@@H](NC(=O)CNC(=O)[C@H](CCC(=O)O)NC(=O)[C@H](C)NC(=O)[C@@H](N)Cc1c[nH]cn1)[C@@H](C)O)[C@@H](C)O)C(C)C)C(=O)N[C@@H](C)C(=O)N[C@@H](Cc1c[nH]c2ccccc12)C(=O)N[C@@H](CC(C)C)C(=O)N[C@H](C(=O)N[C@@H](CCCCN)C(=O)NCC(=O)N[C@@H](CCCNC(=N)N)C(=O)NCCOCCOCC(=O)NCCOCCOCC(=O)N[C@@H](CCC(N)=O)C(=O)NCC(=O)N1CCC[C@H]1C(=O)N[C@@H](Cc1c[nH]c2ccccc12)C(=O)N[C@@H](CC(C)C)C(=O)N[C@@H](CCC(=O)O)C(=O)N[C@@H](CCC(=O)O)C(=O)N[C@@H](CCC(=O)O)C(=O)N[C@@H](CCC(=O)O)C(=O)N[C@@H](CCC(=O)O)C(=O)N[C@@H](C)C(=O)N[C@@H](Cc1ccc(O)cc1)C(=O)NCC(=O)N[C@@H](Cc1c[nH]c2ccccc12)C(=O)N[C@@H](CC(C)C)C(=O)N[C@@H](CC(=O)O)C(=O)N[C@@H](Cc1ccccc1)C(N)=O)C(C)C [Compound 42, GLP-1(7-36)-Peg3-Peg3-[Gln1,Leu15]Gastrin17]

EC50 (human GLP-1 R; Table 2): 0.026 nM | half-life (in vivo): 1.5 h
Compound: CC[C@H](C)[C@H](NC(=O)[C@H](Cc1ccccc1)NC(=O)[C@H](CC(C)C)NC(=O)[C@@H]1CCCCNC(=O)CC[C@H](NC(=O)[C@H](CCC(=O)O)NC(=O)[C@H](CCSC)NC(=O)[C@H](CCC(N)=O)NC(=O)[C@H](CCCCN)NC(=O)[C@H](CO)NC(=O)[C@H](CC(C)C)NC(=O)[C@H](CC(=O)O)NC(=O)[C@H](CO)NC(=O)[C@@H](NC(=O)[C@H](Cc2ccccc2)NC(=O)[C@@H](NC(=O)CNC(=O)[C@H](CCC(=O)O)NC(=O)CNC(=O)[C@@H](N)Cc2c[nH]cn2)[C@@H](C)O)[C@@H](C)O)C(=O)N[C@@H](CCC(=O)O)C(=O)N[C@@H](C)C(=O)N[C@@H](C(C)C)C(=O)N1)C(=O)N[C@@H](CCC(=O)O)C(=O)N[C@@H](Cc1c[nH]c2ccccc12)C(=O)N[C@@H](CC(C)C)C(=O)N[C@@H](CCCCN)C(=O)N[C@@H](CC(N)=O)C(=O)NCCOCCOCC(=O)NCCOCCOCC(=O)N[C@@H](Cc1ccc(O)cc1)C(=O)NCC(=O)N[C@@H](Cc1c[nH]c2ccccc12)C(=O)N[C@@H](CC(C)C)C(=O)N[C@@H](CC(=O)O)C(=O)N[C@@H](Cc1ccccc1)C(N)=O [Compound 79, Side chain-cyclo([Glu16,Lys20]Exendin-4(1-28)-Peg3-Peg3-[Leu4]Gastrin6] (H-HGEGTFTSDLSKQMEEEAVKLFIEWLKN[AEEA][AEEA]YGWLDF-NH2; lactam 16-20)
